Laboratory results: paper PMC7835231, “Human organoid biofilm model for assessing antibiofilm activity of novel agents” (NPJ Biofilms and Microbiomes, 2021)
Entries after “also recorded” stand apart in the source; their conditions may differ.

What was measured:
[1] = tested on: MRSA-lux (MRSA SAP149) biofilm; assay: One-day or three-day MRSA-lux biofilm on N/TERT epidermal skin model, CFU count and luminescence; assay type: cell-based, Staphylococcus aureus; settings: for antibiofilm activity (CFU recovered) against pre-established MRSA-lux biofilm: peptide 0.1% topical, 5 to 6 biological replicates, Kruskal–Wallis, Dunn's test versus control; for geometric mean of MRSA-lux bacteria recovered: untreated 1.3 × 10^8 CFU/skin, geometric mean of 3 to 9 biological replicates
Source text: (§1) Bacterial strains used in this study include USA300-LAC[56] (referred to as MRSA), and a luminescent MRSA strain SAP149[57] (referred to as MRSA-lux), Pseudomonas aeruginosa strain PAO1[58] and a luminescent strain of P. aeruginosa[59] (PAO1-lux). Bacteria strains used for confocal microscopy imaging include S. aureus USA300-LAC transformed with a pKK22 plasmid expressing a far-red fluorescent protein (MRSA-FarRed), as well as P. aeruginosa PAO1 (PAO1-mCherry), transformed with an mCherry expressing plasmid, pMCh-23[60]. All S. aureus strains were grown overnight in TSB containing 1% D-glucose at 37 °C with shaking at 180 rpm, sub-cultured to mid-exponential growth phase in TSB 1% D-glucose. Bacteria were harvested and resuspended in sterile PBS to a concentration of 2 × 10^8 CFU/ml before seeding onto skin surface. All P. aeruginosa strains were grown in LB under the same conditions as mentioned above, subcultured in LB medium, and resuspended in PBS at 2 × 10^8 CFU/ml before seeding.
(§2) Skin models were established using a modification of described methods. Briefly, 3 × 10^5 N/TERT cells in 400 μl DermaLife K Keratinocyte Complete Medium with LifeFactors (5 μg/ml rh Insulin LifeFactor, 6 mM L-Glutamine LifeFactor, 1 μM Epinephrine LifeFactor, 5 μg/ml Apo-Transferrin LifeFactor, 0.5 ng/ml rh TGF-α LifeFactor, 0.4% Extract P LifeFactor, 100 ng/ml Hydrocortisone Hemisuccinate LifeFactor) were seeded onto each filter insert (ThinCert™ Cell culture insert, Greiner bio-one, Kremsmünster, Austria) in a 12-well ThinCert™ Plate (Greiner bio-one) holding 4.1 ml/well DermaLife K Keratinocyte Complete Medium with LifeFactors below each filter. Medium was refreshed every second day until N/TERT cells reached confluency in 3-4 days. Culture media both on top and below the filter were then switched to DMEM/Ham’s F-12/CnT-Prime 3D Barrier Media in a 3:1:4 ratio supplemented with 0.1 μg/ml hydrocortisone, 0.125 μg/ml isoproterenol, 0.25 μg/ml bovine insulin, 26.5 pM selenious acid, 5 mM L-serine, 5 μM L-carnitine, 1.6 mg/ml BSA, 25 μM palmitic acid, 15 μM linoleic acid and 7 μM arachidonic acid. Medium on top of the filters was removed the next day to allow air-exposure, which induced differentiation and stratification of the epidermis. After 2–3 days, linoleic acid concentration was increased to 30 μM. The skin samples were cultured for 10 days at air–liquid interface at 37 °C and 7.3% CO2 with medium being refreshed every 2–3 days.
(§3) One million MRSA or PAO1, or luminescent MRSA-lux or PAO1-lux, or fluorescently-tagged MRSA-FarRed or PAO1-mCherry resuspended in PBS were seeded (5 μl of 2 × 10^8 CFU/ml) in the center of the skin model, cultured at 37 °C and 7.3% CO2 to allow the establishment of bacterial biofilms. One day or three days after inoculation, 30 μl of 0.1% (1 mg/ml) or 0.4% (4 mg/ml) DJK-5 peptide was added on top of the biofilm for 4 h. […] To visualize biofilms, skin samples seeded with luminescent bacteria were imaged using the ChemiDoc Imaging System (Bio-Rad). To quantify bacterial counts, skin samples, together with the filter inserts, were excised using a disposable scalpel (VWR, Radnor, PA), sonicated in 1.5 ml PBS, vortexed, serially diluted, and plated on LB agar plates. The cut-off of the Y-axis in each figure indicates the detection limit of CFU count while bars indicate the geometric mean of recovered CFU.

PAO1-lux biofilm = assay: One-day or three-day PAO1-lux biofilm on N/TERT epidermal skin model, CFU count and luminescence; assay type: cell-based, Pseudomonas aeruginosa; settings: for antibiofilm activity (CFU recovered) against pre-established PAO1-lux biofilm: peptide 0.1% topical, 4 h, 5 to 6 biological replicates, Kruskal–Wallis, Dunn's test versus control
Source text: as §1, §2, §3

N/TERT epidermal skin [2] = assay type: cell-based, human
Experimental: (§4) Thermal damage was created by burning 10-day air–liquid interface skins at 100 °C for 4 s with a digital soldering iron (FX888D, American Hakko Products, Inc., Santa Clarita, CA). The skin filter inserts were transferred to 12-well plates (Sigma-Aldrich) containing 800 μl/well fresh culture medium prior to bacterial infection. MRSA biofilm was established by seeding 2 × 10^6 CFU in 5 μl PBS on top of the thermal damaged skin and cultured at 37 °C and 5% CO2 for 24 h. DJK-5 peptide (30 μl of 0.4%) alone or in combination with 0.01%, 0.1%, or 0.4% 1002 was administered on top of the pre-formed biofilm. Skin samples were collected 24 h post peptide treatment for colony count.
(§5) At the time of colony quantification, culture supernatants below the skin filter inserts were harvested for measuring cytotoxicity by the lactate dehydrogenase assay using a Cytotoxicity Detection Kit (Roche Diagnostics, Basel, Switzerland), according to the manufacturer’s instructions. Untreated skin samples or skin samples treated with 5% Triton X-100 were used as negative (0% toxicity) or positive (100% toxicity) control, respectively. Culture supernatants were also used to measure IL-1β and IL-8 production using ELISA kits from eBioscience (San Diego, CA).

IL-1β production = assay: IL-1β ELISA of culture supernatant, MRSA-infected burned skin; assay type: cell-based, human
Experimental: as §4, §5

[3] = tested on: MRSA (USA300-LAC) biofilm on burned skin; assay: MRSA USA300 thermal wounding skin model, colony count; assay type: cell-based, Staphylococcus aureus
Experimental: as §3
as §4, with “DJK-5 peptide (30 μl of 0.4%) alone or in combination with 0.01%, 0.1%, or 0.4% 1002 was administered on top of the pre-formed biofilm. Skin samples were collected 24 h post peptide treatment for colony count.” left out

[4] = tested on: P. aeruginosa PAO1 biofilm; assay: One-day PAO1 biofilm on N/TERT epidermal skin model, CFU count; assay type: cell-based, Pseudomonas aeruginosa; settings: 1-day biofilm; 0.4% (120 µg) DJK-5, 4 h; control 1.3 × 10^8 CFU/skin; geometric mean of 5 to 8 biological replicates
Source text: as §1, with “All P. aeruginosa strains were grown in LB under the same conditions as mentioned above, subcultured in LB medium, and resuspended in PBS at 2 × 10^8 CFU/ml before seeding.” left out
One million MRSA or PAO1, or luminescent MRSA-lux or PAO1-lux, or fluorescently-tagged MRSA-FarRed or PAO1-mCherry resuspended in PBS were seeded (5 μl of 2 × 10^8 CFU/ml) in the center of the skin model, cultured at 37 °C and 7.3% CO2 to allow the establishment of bacterial biofilms. […] To quantify bacterial counts, skin samples, together with the filter inserts, were excised using a disposable scalpel (VWR, Radnor, PA), sonicated in 1.5 ml PBS, vortexed, serially diluted, and plated on LB agar plates. […]

IL-8 production [5] = assay type: cell-based, human
Source text: as §5, with “CA). […]” for “CA).”
(§6) Supplementary Fig 4. Burned skin without infection and 2-day biofilm on skin without thermal damage had minimal changes in cytotoxicity and cytokine production compared to skin control without infection and thermal damage.
(§7) Thermally damaged epidermal skin was mock infected with PBS for 24 hours, followed by 24 hours treatment with 0.4% DJK-5 or water (a, b). The cytotoxicity (a) and IL-8 production (b) from culture supernatant beneath skin was determined. One day pre-established MRSA-lux and PAO1-lux skin biofilm was treated with vehicle control-water for 24 hours, changes in luminescence signal (c), bacteria load (d), skin cytotoxicity (e) and IL-8 level (f) was quantified. Error bars indicate mean with SD (n=3). One-way ANOVA, Dunnett’s multiple comparisons test (* P ≤ 0.05; ** P ≤ 0.01). […]

N/TERT epidermal skin [6] = assay type: cell-based, human; remark: listed apart in the source
Source text: as §5, with “CA). […]” for “CA).”
as §6, §7

IL-8 production [7] = assay: IL-8 ELISA of culture supernatant, MRSA-infected burned skin; assay type: cell-based, human; settings: burned skin with MRSA biofilm; 0.4% DJK-5, 24 h; ELISA of media below filter
Experimental: as §4, §5

“RRWIRVAVILRV [RI-1018, synthetic host defense peptide]” was tested, and the “antibiofilm activity (CFU recovered) against pre-established MRSA-lux biofilm” value ([1]; 1-day biofilm, 4 h) was “comparable antibiofilm activity against MRSA-lux and PAO1-lux” and the “antibiofilm activity (CFU recovered) against pre-established PAO1-lux biofilm” value (PAO1-lux biofilm; 1-day biofilm) was “comparable antibiofilm activity against MRSA-lux and PAO1-lux”.
With “VQRWLIVWRIRK [compound 1002, Innate defense regulator peptide, a bactenecin derivative; anti-inflammatory synthetic HDP]” the “antibiofilm activity (CFU recovered) against pre-established MRSA-lux biofilm” value ([1]; 1-day biofilm, 4 h) was “All of the peptides except 1002 significantly reduced”, the “cytotoxicity from MRSA infected burned skin” value (N/TERT epidermal skin [2]) was “significant decreases” and the “antibiofilm activity (CFU recovered) against pre-established PAO1-lux biofilm” value (PAO1-lux biofilm; 1-day biofilm) was “All of the peptides except 1002 significantly reduced”. The “pro-inflammatory IL-1β release from MRSA infected burned skin” value (IL-1β production; 1002 treatment alone, 24 h, ELISA) was “significant decreases” and the “reduction in bacterial count compared to untreated biofilms” value ([3]; burned skin with MRSA biofilm, 0.4% 1002 alone, 24 h) was 17 fold.
“VRLIVAVRIWRR [compound 1018, synthetic host defense peptide]” was tested, and the “antibiofilm activity (CFU recovered) against pre-established MRSA-lux biofilm” value ([1]; 1-day biofilm, 4 h) was “superior effects in eradicating MRSA-lux biofilms; also recorded: superior activity in eradicating MRSA biofilm”.
With “VQWRAIRVRVIR [DJK-5, D-enantiomeric antibiofilm synthetic host defense peptide]” the “luminescence of MRSA-lux biofilm” value ([1]; 1-day biofilm, 0.1% (30 μg total peptide), 4 h, ChemiDoc imaging) was “reduced the area of colonization”, the “geometric mean of MRSA-lux bacteria recovered” value ([1]; 1-day biofilm, 0.1% DJK-5 (30 μg) topical, 4 h) was 1.6 × 10^6 CFU/skin and the “luminescence of MRSA-lux biofilm” value ([1]; 1-day biofilm, 0.4% (120 μg), 4 h, ChemiDoc imaging) was “completely abolished the luminescence”. For the same compound, the “geometric mean of MRSA-lux bacteria recovered” value ([1]; 1-day biofilm, 0.4% DJK-5 (120 μg) topical, 4 h) was 2.1 × 10^4 CFU/skin, the “antibiofilm activity (CFU recovered) against pre-established MRSA-lux biofilm” value ([1]; 1-day biofilm, 4 h) was “comparable antibiofilm activity against MRSA-lux and PAO1-lux; also recorded: superior activity in eradicating MRSA biofilm” and the “reduction of bacterial load” value ([1]; 3-day MRSA-lux biofilm, 0.4% DJK-5, within 4 h of treatment, versus untreated) was 4 log orders of magnitude. For the same compound, the “luminescence of MRSA-lux biofilm” value ([1]; 3-day biofilm, 0.4% DJK-5, 4 h) was “successfully wiped out the bacterial luminescence”, the “geometric mean of recovered PAO1-lux bacteria” value (PAO1-lux biofilm; 1-day biofilm, 0.4% (120 µg) DJK-5, 4 h, control 8.9 × 10^7 CFU/skin, geometric mean of 5 to 8 biological replicates) was 1.9 × 10^2 CFU/skin and the “luminescence of PAO1-lux biofilm” value (PAO1-lux biofilm; 1-day biofilm, 0.4% DJK-5, 4 h) was “evident reduction in the luminescence signal”. The “antibiofilm activity (CFU recovered) against pre-established PAO1-lux biofilm” value (PAO1-lux biofilm; 1-day biofilm) was “comparable antibiofilm activity against MRSA-lux and PAO1-lux”, the “bacterial burden (colony count)” value (PAO1-lux biofilm; 3-day PAO1-lux biofilm, 0.4% DJK-5, 4 h) was “significantly decreased bacterial burden” and the “luminescence of PAO1-lux biofilm” value (PAO1-lux biofilm; 3-day biofilm, 0.4% DJK-5, 4 h) was “wiped out luminescence signal”. The “geometric mean of recovered non-luminescent PAO1 bacteria” value [4] was 4.9 × 10^3 CFU/skin, the IL-1β production (IL-1β production; burned skin with MRSA biofilm, 0.4% DJK-5, 24 h, ELISA of media below filter) was “significantly suppressed” and the “IL-8 production compared to control skin” value (IL-8 production [5]) was “slightly increased IL-8 production”. The “increase in observed cytotoxicity compared to control skin” value (N/TERT epidermal skin [6]) was ~ 5%, the IL-8 production (IL-8 production [7]) was “significantly suppressed” and the “bacterial load on burned skin” value ([3]; skin burned 100 °C 4 s, 24 h MRSA biofilm, 0.4% DJK-5 (120 μg) in PBS topical, control 7.8 × 10^8 CFU/skin, geometric mean) was 3.2 × 10^5 CFU/skin.
In the case of `C/C(=C\C(=O)OCCCCCCCCC(=O)O)C[C@@H]1OC[C@H](C[C@@H]2O[C@H]2[C@@H](C)[C@H](C)O)[C@@H](O)[C@H]1O` [mupirocin, reference compound], the “bacterial load of MRSA-lux in the biofilm” value ([1]; 1-day biofilm, 1% mupirocin dissolved in 10% DMSO, topical, 4 h) is reported as “did not have appreciable impact; also recorded: almost inactive”.
With “VQWRRIRVWVIR [DJK-6, synthetic host defense peptide]” the “antibiofilm activity (CFU recovered) against pre-established MRSA-lux biofilm” value ([1]; 1-day biofilm, 4 h) was “superior effects in eradicating MRSA-lux biofilms; also recorded: superior activity in eradicating MRSA biofilm”.
For “KRIRWVILWRQV [RI-1002, synthetic host defense peptide]”, the “antibiofilm activity (CFU recovered) against pre-established MRSA-lux biofilm” value ([1]; 1-day biofilm, 4 h) was “comparable antibiofilm activity against MRSA-lux and PAO1-lux” and the “antibiofilm activity (CFU recovered) against pre-established PAO1-lux biofilm” value (PAO1-lux biofilm; 1-day biofilm) was “comparable antibiofilm activity against MRSA-lux and PAO1-lux”.
